What all share (assay type): cell-based
One test concerns Leishmania promastigotes. The test can be described thus: Leishmania promastigotes Assay. The following applies: promastigotes, 3H-thymidine uptake, read-out: Leishmania IC50 ± SD. Here is the method:
A WHO reference vaccine strain of L. major originally isolated from a patient in Iran and a Kenyan strain of L. donovani (MHOM(/KE/85/NLB 274) were cultured in medium 199 containing 0.02 mg/ml gentamycin, 25 mM Hepes, 4 mM L-glutamine, and 20% heat inactivated fetal calf serum (FCS). Incubation was carried out at 26° C. Promastigotes were harvested on day 3 and 6 of the culture and used for the parasite growth inhibition.
The effect of the test compounds on promastigotes was assessed by a method similar to the one described by Pearson et al., by incubating promastigotes (3×10^6/ml) at 26° C. for 2 hrs in the presence of a given compound or the medium alone in 96 wells flat bottom microtiter plates. Following incubation, 100 μCi of 3H-thymidine was added to each well and further incubated for 18 hrs. Promastigotes were then harvested on filter paper by means of a cell harvester, extensively washed with distilled water and counted in a scintillation counter. The promastigotes were also counted microscopically and their flagellar motility was assessed.

The subject of another test is human lymphocytes. In words: Lymphocyte Proliferation Assay. The following applies: PHA provoked proliferation of human lymphocytes, read-out: Lymphocytes IC50 ± SD. Here is the method: Human blood mononuclear cells (BMNC) from heparinized blood were isolated by metrizoate sodium-Ficoll density gradient centrifugation, washed 3 times in RPMI 1640 medium supplemented with 5% FCS and with 400 IU of penicillin plus 400 μg/ml streptomycin. BMNC were resuspended in the medium and cultured in triplicate, 0.63×10^5/ml and 160 μl per vial, in round-bottom microtiter plates with 20 μl of various concentrations of the test compound. Immediately prior to incubation, optimum concentrations of the mitogen phytohaemagglutinin (PHA) and the antigen purified protein derivative of tuberculin (PPD) were added to the cultures in a volume of 20 μl. Unstimulated control cultures were always included. Cultures were incubated for 3 or 7 days. The degree of lymphocyte proliferation was estimated by ^3H-thymidine (1 μCi per well) addition 24 h before the cells were harvested on glass fiber filters by means of a harvesting machine), and ^3H-thymidine incorporation was measured in a liquid scintillation counter. For each set of triplicate values, the median was recorded. Unstimulated cultures were always included as controls.

In the next test the test system is Plasmodium falciparum. In words: Plasmodium falciparum Assay. Particulars: 3-H-hypoxanthine incorporation, 48 hours, read-out: Plasmodium IC50 ± SD. Here is the method:
The experiments in which compounds were tested for their ability to inhibit parasite growth were performed by a modification of the method originally described by Jensen et al. (1982). 50 μl of parasitized erythrocytes (parasitemia approximately 1%) in a concentration of 5×10^8/ml and 50 μl of RPMI medium containing different concentrations of the test compound was added to each well of a 96 well flat-bottomed microtiter plate. The cultures were then incubated for 48 hours, 24 hours before termination of the culture adding 20 μl of 3-H-hypoxanthine (40 uCi/ml) was added to each well. The cultures were then harvested onto glass fiber filters using a Skatron cell harvester, and the incorporation of 3-H-hypoxanthine into the DNA of dividing parasites was determined by liquid scintillation spectrometry. Control cultures with uninfected erythrocytes and infected erythrocytes in RPMI medium without test compounds were always performed in parallel to the test cultures. In some experiments thin smears of parasite cultures were stained by Giemsa and examined under microscope (×1000). The test compounds described above, were diluted in RPMI medium immediately before use. In the experiments, chloroquine phosphate was used as a positive control as a drug known to inhibit parasite growth.

Molecules are shown by their SMILES. Like-named read-outs stand apart in the source and are kept apart here.

Consider `COc1ccc(C(=O)/C=C/c2cccc(F)c2)c(OC)c1OC` [3-F-2′,3′,4′-OCH3, 3-fluoro-2′,3′,4′-trimethoxychalcone], for which the IC50 with Leishmania promastigotes (Leishmania) was determined as 9.7 ± 0.9 µM; in the test with human lymphocytes (Lymphocyte), 6.4 ± 0.4 µM; with Plasmodium falciparum (Plasmodium falciparum) it was 29 µM.
For `COc1ccc(C(=O)/C=C/c2cccc(Oc3ccccc3)c2)c(OC)c1OC` [3-OC6H5-2′,3′,4′-OCH3, 3-phenoxy-2′,3′,4′-trimethoxychalcone] the same measures were 8.7 ± 0.5 µM, 17 ± 1 µM and 8.9 µM.
Turning to `COc1ccc(/C=C/C(=O)c2cccc(Br)c2)c(OC)c1` [3′-Br-2,4-OCH3], the values for the IC50 with Leishmania promastigotes, in the test on human lymphocytes and in the test with Plasmodium falciparum were 16 ± 1 µM, 37 ± 2 µM and 17 µM, respectively.
With `C=CCOc1ccc(C(=O)/C=C/c2cc(OC)c(CCCCCC)c(OC)c2)cc1` [4-C6H13-3,5-OCH3-4′-allyloxy, 4-hexyl-3,5-dimethoxy-4′-(2-propenyloxy)chalcone], the half-maximal inhibitory concentration (IC50) was found to be 19 ± 4 µM in the test with Leishmania promastigotes (Leishmania), 15 ± 1 µM in the test on human lymphocytes (Lymphocyte) and 11 µM with Plasmodium falciparum (Plasmodium falciparum).
`COc1ccc(C(=O)/C=C/c2ccc(N(C)C)cc2)c(OC)c1OC` [4-N(CH3)2-2′,3′,4′-OCH3, 4-dimethylamino-2′,3′,4′-trimethoxychalcone]: the 50% inhibitory concentration (IC50) with Leishmania promastigotes (Leishmania) came to 21 ± 2 µM; in the test with human lymphocytes (Lymphocyte), 35 ± 2 µM; in the test with Plasmodium falciparum (Plasmodium falciparum), 22 µM.
The matching figures for `O=C(/C=C/c1ccc(F)cc1)c1ccc(F)cc1` [4′,4-F, 4,4′-difluorochalcone]: 15 ± 2 µM, 22 ± 1 µM and 43 µM.
Turning to `COc1ccc(/C=C/C(=O)c2ccc(OC)cc2)cc1` [4′,4-OCH3], the results for the concentration for half-maximal inhibition (IC50) in the test on Leishmania promastigotes, in the test on human lymphocytes and with Plasmodium falciparum were 106 ± 9 µM, 112 ± 8 µM and 51 µM, respectively.
The matching figures for `O=C(/C=C/c1ccc(O)cc1)c1ccc(O)cc1` [4′-4-OH]: 83 ± 5 µM, 59 ± 3 µM and 17 µM.
As for `O=C(/C=C/c1ccccc1)c1ccc(F)cc1` [4′-F, 4′-fluorochalcone], the IC50 with Leishmania promastigotes (Leishmania) stood at 15 ± 1 µM; in the test with human lymphocytes (Lymphocyte), 23 ± 2 µM; in the test with Plasmodium falciparum (Plasmodium falciparum), 51 µM.
For the compound `CCCCCCOc1ccc(C(=O)/C=C/c2ccccc2)cc1` [4′-OC6H13], the IC50 was 62 ± 5 µM with Leishmania promastigotes, 99 ± 7 µM with human lymphocytes and 17 µM with Plasmodium falciparum.
For the compound `O=C(/C=C/c1ccccc1)c1ccccc1` [Chalcon], the figures for the half-inhibitory concentration (IC50) with Leishmania promastigotes (Leishmania), in the test with human lymphocytes (Lymphocyte) and in the test on Plasmodium falciparum (Plasmodium falciparum) were 20 ± 1 µM, 21 ± 2 µM and 44 µM, respectively.
The matching figures for `COc1c(/C=C/C(=O)c2ccc(O)cc2)ccc(O)c1CC=C(C)C` [Licochalcone C, 2-methoxy-3-(3-methyl-2-butenyl)-4,4′-dihydroxychalcone]: 55 ± 3 µM, 53 ± 2 µM and 16 µM.
